Results from US11661400B2, “NADPH oxidase inhibitors, pharmaceutical composition comprising the same, and application thereof” (TAIWANJ PHARMACEUTICALS CO., LTD., priority 2018, dated 2023).

Columns and labels:
[1] = target: T1, NOX1 (Homo sapiens, UniProt Q9Y5S8); experiment: NOX1 HT29 cell-based assay (luminol/HRP luminescence); settings: HT29 cells, DMSO = 0%, GKT137831 = 100%; for inhibition at 0.1 µM / inhibition at 1 µM: HT-29; for inhibition at 1 µM: 1000 nM
T1 construct: endogenous in cells; host or cells: HT29
T1 sequence (Q9Y5S8 1-564): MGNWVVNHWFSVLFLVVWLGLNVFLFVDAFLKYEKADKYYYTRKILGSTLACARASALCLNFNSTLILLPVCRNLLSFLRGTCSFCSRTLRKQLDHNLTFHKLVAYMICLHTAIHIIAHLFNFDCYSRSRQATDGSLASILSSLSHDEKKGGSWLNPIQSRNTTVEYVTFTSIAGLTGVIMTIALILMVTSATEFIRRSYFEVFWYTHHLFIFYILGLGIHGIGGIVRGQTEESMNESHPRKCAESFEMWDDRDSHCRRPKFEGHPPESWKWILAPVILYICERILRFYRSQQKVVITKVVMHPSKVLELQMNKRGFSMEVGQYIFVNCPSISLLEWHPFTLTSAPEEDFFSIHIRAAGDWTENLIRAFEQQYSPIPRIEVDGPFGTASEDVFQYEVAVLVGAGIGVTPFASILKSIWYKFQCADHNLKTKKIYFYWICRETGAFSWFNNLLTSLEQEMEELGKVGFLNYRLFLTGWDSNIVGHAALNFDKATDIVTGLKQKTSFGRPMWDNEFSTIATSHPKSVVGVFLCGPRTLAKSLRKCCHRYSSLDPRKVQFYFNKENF
T1 sequence (P13498 2-195 partner limits assumed): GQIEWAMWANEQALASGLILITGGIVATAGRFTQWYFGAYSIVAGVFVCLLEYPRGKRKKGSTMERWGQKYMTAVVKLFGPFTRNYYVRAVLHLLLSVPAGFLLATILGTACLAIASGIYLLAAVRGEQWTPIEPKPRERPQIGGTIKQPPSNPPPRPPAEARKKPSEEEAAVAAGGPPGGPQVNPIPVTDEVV
Procedure: NOX1 HT29 Cell-Based Assay:
HT29 cells were cultured in T75 flask (Corning) and when 70-80% confluence was reached, cells were trypsinized, harvested in HBSS and counted. 1-2×10^5 cells were dispensed into individual wells in 70 μl final volume (96-well plates, white Corning). Cells were treated for 30-60 mins at 37° C. with 10 μl of GKT137831, DMSO and test compounds from their respective assay plates. This will correspond to a final concentration of 100 nM, 1000 nM GKT137831 or test compounds, and 0.1% DMSO. 20 μL of a mixture containing 100 μM luminol plus 0.4 units of HRP (final concentration) was added. Luminescence was quantified using a SpectraMax i3 Multiplate reader (Molecular Devices, Sunnyvale, Calif., USA). As designed, compounds that inhibit NOX1 activity will reduce cellular ROS production, leading to reduced probe-ROS interactions and reduced well luminescence. Compounds were tested in duplicate at a concentration of 100 nM and 1000 nM. DMSO and GKT137831 wells were applied as negative and positive controls, and the activities measured were set to 0% and 100%, respectively.

[2] = target: T2, NOX2 (Homo sapiens, UniProt P04839); experiment: NOX2 HL60 cell-based assay (PMA oxidative burst, L012 chemiluminescence); settings: DMSO-differentiated HL-60 cells, PMA-stimulated; for inhibition at 0.1 µM: HL-60, 100 nM; for inhibition at 1 µM: HL-60, 1000 nM
T2 construct: HL-60 cells, rich in NOX2 expression; endogenous in cells; host or cells: DMSO-differentiated HL-60
T2 sequence (P04839 2-570 limits assumed): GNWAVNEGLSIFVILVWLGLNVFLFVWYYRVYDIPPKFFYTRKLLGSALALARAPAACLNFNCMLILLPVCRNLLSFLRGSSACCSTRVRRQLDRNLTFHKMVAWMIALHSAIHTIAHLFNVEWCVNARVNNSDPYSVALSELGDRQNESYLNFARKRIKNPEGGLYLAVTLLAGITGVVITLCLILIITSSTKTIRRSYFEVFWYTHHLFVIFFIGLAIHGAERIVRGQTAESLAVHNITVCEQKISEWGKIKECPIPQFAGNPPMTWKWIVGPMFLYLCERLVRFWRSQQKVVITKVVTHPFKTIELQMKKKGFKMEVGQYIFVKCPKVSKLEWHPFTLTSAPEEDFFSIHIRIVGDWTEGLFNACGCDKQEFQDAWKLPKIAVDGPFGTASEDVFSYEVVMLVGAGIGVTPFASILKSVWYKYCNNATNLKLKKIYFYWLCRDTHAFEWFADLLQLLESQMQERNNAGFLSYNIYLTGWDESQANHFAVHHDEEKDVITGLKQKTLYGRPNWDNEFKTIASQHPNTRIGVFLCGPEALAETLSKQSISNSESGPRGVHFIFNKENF
T2 sequence (P13498 2-195 partner limits assumed): T1 sequence (P13498 2-195 partner limits assumed)
Procedure: NOX2 HL60 Cell-Based Assay:
HL-60 cells, rich in NOX2 expression, was stimulated to undergo oxidative burst by phorbol myristate acetate (PMA). The ROS produced during this process was measured using the O2^−-specific chemiluminescent probe L012. L012 was added to DMSO-differentiated HL-60 cell suspensions to a final concentration of 100 μM. Then, 80 μL aliquots of cell suspension (2.5×10^5 cells) were transferred to individual wells of a 96-well plate. Test compounds were directly added to the wells at the specified concentrations. Following a 30-60 mins incubation at 37° C. in the dark, the oxidative burst was initiated by the addition of 10 ng/mL PMA, and the chemiluminescence signal was recorded every 5 min over a period of 60 mins in a SpectraMax i3 Multiplate reader (Molecular Devices, Sunnyvale, Calif., USA). • NOX4 HEK293 Overexpression Cell-Based Assay: […]

[3] = target: T3, NOX4 (Homo sapiens, UniProt Q9NPH5); experiment: NOX4 HEK293 overexpression cell-based assay (Amplex Red H2O2); settings: HEK293 cells stably overexpressing NOX4, DMSO = 0, GKT137831 = 100; for inhibition at 1 µM: HEK293, 1000 nM; for inhibition at 0.1 µM: HEK293, 100 nM
T3 construct: expressed in transfected cells
T3 sequence (Q9NPH5 1-578): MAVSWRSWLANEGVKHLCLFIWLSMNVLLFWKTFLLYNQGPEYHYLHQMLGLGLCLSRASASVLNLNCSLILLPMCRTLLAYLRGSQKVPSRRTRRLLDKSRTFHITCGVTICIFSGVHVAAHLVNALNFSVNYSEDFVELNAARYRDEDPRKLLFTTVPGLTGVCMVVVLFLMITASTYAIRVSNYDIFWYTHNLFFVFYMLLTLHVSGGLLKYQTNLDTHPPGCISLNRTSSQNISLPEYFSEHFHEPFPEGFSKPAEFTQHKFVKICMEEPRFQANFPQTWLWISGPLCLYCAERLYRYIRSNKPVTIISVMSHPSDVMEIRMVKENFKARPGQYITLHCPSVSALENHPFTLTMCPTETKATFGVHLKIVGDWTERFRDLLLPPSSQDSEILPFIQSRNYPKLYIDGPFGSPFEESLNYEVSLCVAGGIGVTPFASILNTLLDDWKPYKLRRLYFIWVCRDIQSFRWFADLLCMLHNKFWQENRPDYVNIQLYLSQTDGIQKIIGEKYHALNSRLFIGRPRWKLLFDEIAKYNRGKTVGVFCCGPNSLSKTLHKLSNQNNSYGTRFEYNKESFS
T3 sequence (P13498 2-195 partner limits assumed): T1 sequence (P13498 2-195 partner limits assumed)
Procedure: Extracellular H2O2 measurement using Amplex™ Red Hydrogen Peroxide/Peroxidase Assay Kit (Catalog number: A22188; Invitrogen, Carlsbad, Calif., USA) was used to detect extracellular H2O2 release by HEK293 cells stably overexpressing NOX4. NOX4 clonal cells in log-phase growth were trypsinized, washed, and dispersed thoroughly. Following trypsinization, the cells (3×10^4) were resuspended in 100 μL of 1× Krebs-Ringer phosphate glucose (KRPG) buffer containing various concentrations of GKT137831 or test compounds and incubated at 37° C. for 30 min. Cells were mixed with 100 μL of Amplex Red reagent solution containing 50 μM Amplex Red and 0.1 units/mL of HRP in KRPG buffer; each assay condition was evaluated induplicate. The samples were incubated at 37° C. for 90 mins in the dark, and then centrifuged at 2,500 g for 5 mins. The supernatants were loaded to a 96 well plate, and then measured using a SpectraMax i3 Multiplate reader (Molecular Devices, Sunnyvale, Calif., USA) at 530 nm excitation and 590 nm emission respectively. DMSO and GKT137831 wells were applied as negative and positive controls, and the activities measured were set to 0 and 100, respectively.

Row | Compound | inhibition at 0.1 µM ([1]; 100 nM) | inhibition at 1 µM [1] | inhibition at 0.1 µM [2] | inhibition at 1 µM [2] | % Inhibition NOX4 ([3]; 100 nM) | inhibition at 1 µM [3] | inhibition at 0.1 µM [3] | % Inhibition NOX2 ([2]; 100 nM) | % Inhibition NOX4 ([3]; 1000 nM) | % Inhibition NOX2 ([2]; 1000 nM, 1 µM) | % Inhibition NOX4 ([3]; 1000 nM, 1 µM) | % Inhibition NOX1 ([1]; 100 nM, 0.1 µM) | % Inhibition NOX2 ([2]; 100 nM, methanesulfonate, 0.1 µM) | % Inhibition NOX2 ([2]; 1000 nM, methanesulfonate, 1 µM)
1 | COc1cc2[nH]c(-c3ccc(N4CCCC4)cc3)c(O)c(=O)c2cc1OC [Compound 11] | ≤ 19% | 50 to 79% | ≤ 19% | ≤ 19% | C (the percent of inhibition of NOX by the compounds ranges from 2000 to 49%) | ≥ 80% | – | – | – | – | – | – | – | –
2 | COc1cccc(-c2[nH]c3cc(OC)c(OC)cc3c(=O)c2O)c1 [Compound 4] | 50 to 79% | ≥ 80% | ≤ 19% | 50 to 79% | – | ≥ 80% | ≤ 19% | – | – | – | – | – | – | –
3 | COc1ccccc1-c1[nH]c2cc3c(cc2c(=O)c1O)OCO3 [Compound 26] | ≥ 80% | ≥ 80% | 50 to 79% | ≥ 80% | C (the percent of inhibition of NOX by the compounds ranges from 2000 to 49%) | ≥ 80% | – | – | – | – | – | – | – | –
4 | COc1cc2[nH]c(-c3ccccc3F)c(O)c(=O)c2cc1OC [Compound 18] | ≥ 80% | ≥ 80% | – | 50 to 79% | C (the percent of inhibition of NOX by the compounds ranges from 2000 to 49%) | 50 to 79% | – | C (the percent of inhibition of NOX by the compounds ranges from 2000 to 49%) | – | – | – | – | – | –
5 | COc1cc2[nH]c(-c3ccccc3N)c(O)c(=O)c2cc1OC [Compound 30, 2-(2-aminophenyl)-3-hydroxy-6,7-dimethoxyquinolin-4(1H)-one] | ≤ 19% | ≥ 80% | 50 to 79% | ≥ 80% | – | ≤ 19% | ≤ 19% | – | – | – | – | – | – | –
6 | COc1cc2[nH]c(-c3ccccc3OC)c(O)c(=O)c2cc1OC.Cl [Compound 51] | ≥ 80% | ≥ 80% | – | ≥ 80% | – | – | ≤ 19% | C (the percent of inhibition of NOX by the compounds ranges from 2000 to 49%) | B (the percent of inhibition of NOX by the compounds ranges from 50% o to 79% o) | – | – | – | – | –
7 | COc1ccc2[nH]c(C(=O)c3ccccc3OC)c(O)c(=O)c2c1 [Compound 34, 3-hydroxy-6-methoxy-2-(2-methoxybenzoyl) quinolin-4(1H)-one] | ≤ 19% | ≤ 19% | ≤ 19% | ≤ 19% | – | ≤ 19% | ≤ 19% | – | – | – | – | – | – | –
8 | COc1cc2[nH]c(-c3ccccc3OC(F)(F)F)c(O)c(=O)c2cc1OC [Compound 20] | ≥ 80% | ≥ 80% | 50 to 79% | – | C (the percent of inhibition of NOX by the compounds ranges from 2000 to 49%) | – | – | – | – | A (the percent of inhibition of NOX by the compounds is larger than or equals to 80%) | B (the percent of inhibition of NOX by the compounds ranges from 50% o to 79% o) | – | – | –
9 | COc1cc2[nH]c(C(C)(C)C)c(O)c(=O)c2cc1OC [Compound 14] | ≤ 19% | ≥ 80% | ≤ 19% | ≤ 19% | – | ≤ 19% | ≤ 19% | – | – | – | – | – | – | –
10 | COc1cc2[nH]c(-c3ccc(Cl)cc3)c(O)c(=O)c2cc1OC [Compound 8] | – | ≥ 80% | ≤ 19% | ≤ 19% | – | 50 to 79% | ≤ 19% | – | – | – | – | C (the percent of inhibition of NOX by the compounds ranges from 2000 to 49%) | – | –
11 | COc1cc2[nH]c(-c3ccccc3C(F)(F)F)c(O)c(=O)c2cc1OC [Compound 44, 3-hydroxy-6,7-dimethoxy-2-(2-(trifluoromethyl)phenyl)quinolin-4(1H)-one methanesulfonate] | – | – | – | – | – | – | – | – | – | – | – | – | C (the percent of inhibition of NOX by the compounds ranges from 2000 to 49%) | A (the percent of inhibition of NOX by the compounds is larger than or equals to 80%)
